Target: T1, Fatty-acid amide hydrolase 1 (Mus musculus, UniProt O08914)
T1 sequence (O08914 whole entry): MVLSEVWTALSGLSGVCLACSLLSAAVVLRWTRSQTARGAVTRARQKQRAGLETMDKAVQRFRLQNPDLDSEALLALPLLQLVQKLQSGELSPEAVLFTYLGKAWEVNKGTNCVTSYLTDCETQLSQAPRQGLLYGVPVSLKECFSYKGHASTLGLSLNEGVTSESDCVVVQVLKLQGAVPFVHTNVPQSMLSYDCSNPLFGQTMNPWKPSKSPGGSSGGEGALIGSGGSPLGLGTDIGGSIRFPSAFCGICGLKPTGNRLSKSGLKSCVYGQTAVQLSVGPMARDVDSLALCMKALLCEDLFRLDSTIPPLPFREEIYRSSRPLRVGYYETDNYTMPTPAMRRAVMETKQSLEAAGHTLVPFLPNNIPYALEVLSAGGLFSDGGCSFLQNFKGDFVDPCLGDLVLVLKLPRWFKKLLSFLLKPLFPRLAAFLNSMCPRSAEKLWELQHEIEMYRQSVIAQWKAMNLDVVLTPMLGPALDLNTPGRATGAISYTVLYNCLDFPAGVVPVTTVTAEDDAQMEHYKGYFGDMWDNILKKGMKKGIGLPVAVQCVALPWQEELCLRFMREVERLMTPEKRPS
Assay: Inhibition of mouse brain FAAH assessed as conversion of [3H-ethanolamine]AEA to [3H]ethanolamine by scintillation counting

| Compound | IC50 |
| --- | --- |
| CCCCCCCCCCCCNC(=O)O/N=C(\C)c1cccc(-c2cccs2)c1 | 116 nM |
| C/C(=N\OC(=O)N1CCCCC1)c1cccc(-c2ccccc2)c1 | 220 nM |
| C/C(=N\OC(=O)Nc1ccccc1)c1cccc(-c2ccccc2)c1 | 69 nM |
| C/C(=N\OC(=O)Nc1cccc2ccccc12)c1cccc(-c2ccccc2)c1 | 10 nM |
| C/C(=N\OC(=O)N1CCCCC1)c1cccc(-c2cccs2)c1 | 112 nM |
| C/C(=N\OC(=O)Nc1ccccc1)c1ccc(-c2cccs2)cc1 | 200 nM |
| C/C(=N\OC(=O)Nc1ccccc1)c1ccc(-c2ccccc2)cc1 | 760 nM |
| C/C(=N\OC(=O)Nc1ccccc1)c1cccc(-c2cccc(C(N)=O)c2)c1 | 84 nM |
| C/C(=N\OC(=O)Nc1cccc2ccccc12)c1ccc(C2CCCCC2)cc1 | > 1000 nM |
| C/C(=N\OC(=O)NCCCCCc1ccccc1)c1cccc(-c2ccccc2)c1 | 100 nM |
